From patent US11548900B2, “Oxazino-quinazoline and oxazino-quinoline type compound, preparation method and uses thereof” (BEIJING SCITECH-MQ PHARMACEUTICALS LIMITED, priority 2018, dated 2023)
pIC50: −log10 of the molar value.

Columns and labels:
HER2 kinase = HER2 kinase (Homo sapiens (Human), UniProt P04626); test: Inhibition of HER2 kinase activity (ULight-labeled PolyGT substrate); type: biochemical; conditions: HER2 kinase 10 nM, ATP 10 μM, 2 hours
Experimental: The assay for the inhibition of EGFR and HER2 kinase activity by small molecular compounds was carried out using the method as follows:
1) Dilution of the compounds
In a 96-well plate a, the compounds were diluted with DMSO using a 3-fold gradient dilution to form 11 concentrations, the 12th concentration is pure DMSO (as a positive control); and in a new 96-well plate b the above solutions were diluted 25 times with ultrapure water (DMSO concentration is 4%).
2) Transferring the compounds to 384-well plate
The compound solutions diluted with ultrapure water in the 96-well plate b above was transferred to the corresponding wells of a 384-well plate in duplicate.
3) Addition of 4×kinase solution: 2.5 μl of the above 4× kinase solution was taken using multichannel pipette and added to the corresponding reaction wells of the 384-well plate, mixed well and pre-reacted at room temperature for 5 minutes.
4) Addition of 2×substrate/ATP mixed solution: 5 μl of the above 2×substrate/ATP mixed solution was taken using multichannel pipette and added to the corresponding reaction wells of the 384-well plate.
5) Negative control: negative control wells were set in the 384-well plate, and 2.5 μl 4×substrate, 2.5 μl 4×enzyme solution, 2.5 μl 1×Kinase Assay Buffer and 2.5 μl ultrapure water containing 4% DMSO were added to each well.
6) Mixed by centrifugation and kept at room temperature for 2 hours in the dark.
7) Termination of the enzymatic reaction:
5 μl of the above 4× stop solution was pipetted to the corresponding wells of the 384-well plate, centrifuged and mixed, and reacted at room temperature for 5 minutes.
5 μl of the above 4× detection solution was pipetted into the corresponding wells of the 384-well plate, centrifuged and mixed, and reacted at room temperature for 1 hour.
9) The 384-well plate was placed into a microplate reader and the signal was detected using the corresponding program.
10) IC50 analysis: Well reading value=10000*EU665 value/EU615 value Inhibition rate=(reading value of positive control well−reading value of experimental well)/(reading value of positive control well−reading value of negative control well)*100% Corresponding IC50s can be calculated by entering the drug concentrations and the corresponding inhibition rates into GraphPad Prism 5.
Conditions of experiment for screening HER2 kinase inhibitory molecules:
The final concentration of HER2 kinase in the reaction system is 10 nM, the final concentration of ATP is 10 μM, the final concentration of substrate ULight™-labeled PolyGT is 100 nM, and the enzymatic reaction time is 2 hours.
The maximum final concentration of the compound in the reaction system is 2.5 μM, 11 concentrations were made with a 3-fold gradient dilution, and the minimal final concentration is 0.042 nM. The final concentration of DMSO is 1%.

BT474 cells = test: Inhibition of cell proliferation, BT474 (CCK-8, 72 h); type: cell-based; conditions: Homo sapiens, BT-474, 72 h incubation
Experimental: The assay for the inhibition of cell proliferation by small molecular compounds was carried out using the method as follows:
1. 600 μL pancreatin was added to a T75 cell culture flask, which was digested in a 37° C. incubator for about 1 min before 5 mL of DMEM complete culture solution was added, blew evenly, transferred to a 15 mL centrifuge tube, and centrifuged at 1000 rpm for 4 min;
2. The supernatant was removed and 5 mL DMEM complete culture solution was added, blew evenly, and 10 μL cell suspension was taken and mixed with 10 μL 0.4% Trypan Blue, and counted using a cell counter;
3. BT474 and HCC827 cell lines were seeded in 96-well plates at a cell density of 10,000 and 3000 cells/well/80 μL, respectively, and cultured overnight. Only sterile water was added to the 36 wells on the periphery of the 96-well plate without adding cells, and only the 60 wells in the center of the 96-well plate were used for cell assays and controls;
4. Dilution of compounds: the compounds were diluted with a 3-fold dilution to make 10 concentrations in total with an initial concentration of 10 mM;
5. 20 μL of different compounds with different concentrations were added to each well, and 20 μL of complete culture solution was added to the remaining wells. The final concentration of DMSO in each well is 0.25%;
6. After 72 h of incubation, 10 μL CCK-8 reagent was added to each well, and incubated at 37° C. for 1-2 h; and the OD value was read at 450 nm;
7. Cell survival rate (%)=[(As−Ab)/(Ac−Ab)]*100%
As: Assay well (medium containing cell, CCK-8, compound)
Ac: Control well (medium containing cell, CCK-8)
Ab: Blank well (CCK-8, medium without cell and compound)
8. The value was imported into Graphpad Prism5 software for the calculation of IC50s (compound concentration at which 50% maximum survival rate is observed).

Chain of HER2 kinase (P04626 23-1255): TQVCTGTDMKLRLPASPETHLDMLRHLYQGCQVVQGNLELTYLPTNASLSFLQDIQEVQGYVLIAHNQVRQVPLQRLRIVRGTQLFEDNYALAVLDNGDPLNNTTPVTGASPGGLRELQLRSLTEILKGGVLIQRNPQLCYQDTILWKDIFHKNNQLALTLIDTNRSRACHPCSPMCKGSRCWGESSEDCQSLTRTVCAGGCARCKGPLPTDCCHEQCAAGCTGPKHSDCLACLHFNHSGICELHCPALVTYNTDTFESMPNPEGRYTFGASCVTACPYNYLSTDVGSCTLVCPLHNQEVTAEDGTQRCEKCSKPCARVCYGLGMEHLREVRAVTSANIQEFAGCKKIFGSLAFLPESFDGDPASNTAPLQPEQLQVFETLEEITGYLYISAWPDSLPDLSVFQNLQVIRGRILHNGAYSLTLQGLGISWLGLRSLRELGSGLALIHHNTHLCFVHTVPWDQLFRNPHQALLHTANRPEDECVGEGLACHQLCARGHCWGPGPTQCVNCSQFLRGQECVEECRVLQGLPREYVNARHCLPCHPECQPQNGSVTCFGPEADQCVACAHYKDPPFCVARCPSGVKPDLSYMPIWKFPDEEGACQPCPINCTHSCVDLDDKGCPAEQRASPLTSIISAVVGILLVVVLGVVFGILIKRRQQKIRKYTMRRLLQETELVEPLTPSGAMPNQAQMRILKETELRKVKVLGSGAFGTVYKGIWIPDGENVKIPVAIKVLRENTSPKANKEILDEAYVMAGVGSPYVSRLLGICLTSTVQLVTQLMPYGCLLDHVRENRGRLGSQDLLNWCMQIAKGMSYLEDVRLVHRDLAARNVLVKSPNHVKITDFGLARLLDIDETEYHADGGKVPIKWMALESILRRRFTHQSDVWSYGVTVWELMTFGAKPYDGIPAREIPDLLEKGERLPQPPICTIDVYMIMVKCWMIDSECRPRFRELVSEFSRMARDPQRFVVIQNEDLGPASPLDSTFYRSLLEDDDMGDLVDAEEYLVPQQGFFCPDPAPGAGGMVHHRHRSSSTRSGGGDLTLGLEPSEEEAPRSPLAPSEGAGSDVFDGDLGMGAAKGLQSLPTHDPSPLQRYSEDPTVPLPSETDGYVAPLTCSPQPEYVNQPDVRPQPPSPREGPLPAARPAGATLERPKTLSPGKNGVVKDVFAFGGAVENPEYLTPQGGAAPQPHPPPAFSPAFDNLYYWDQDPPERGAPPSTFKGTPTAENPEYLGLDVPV

Row | pIC50 (HER2 kinase) | pIC50 (BT474 cells) | SMILES
1 | ≥ 7.30 | – | C=CC(=O)N1CCOc2c1ccc1ncnc(Nc3ccc(Oc4ccccc4)cc3F)c21 [Example 29, 1-(10-((2-fluoro-4-phenoxyphenyl)amino)-2,3-dihydro-4H-[1,4]oxazino[2,3-f]quinazolin-4-yl)prop-2-en-1-one]
2 | ≥ 7.30 | – | C=CC(=O)N1CCOc2c1ccc1ncnc(Nc3ccc(Oc4ccccc4OCCN(C)C)cc3)c21 [Example 30, 1-(10-((4-(2-(2-(dimethylamino)ethoxy)phenoxy)phenyl)amino)-2,3-dihydro-4H-[1,4]oxazino[2,3-f]quinazolin-4-yl)prop-2-en-1-one]
3 | 6.30 to 7.30 | – | C=CC(=O)N1CCOc2c1ccc1ncnc(Nc3ccc(Oc4ccccc4OCCCN(C)C)cc3)c21 [Example 31, 1-(10-((4-(2-(3-(dimethylamino)propoxy)phenoxy)phenyl)amino)-2,3-dihydro-4H-[1,4]oxazino[2,3-f]quinazolin-4-yl)prop-2-en-1-one]
4 | ≥ 7.30 | – | C=CC(=O)N1CCOc2c1ccc1ncnc(Nc3ccc(Oc4ccccc4OCCOC)cc3)c21 [Example 32, 1-(10-((4-(2-(2-methoxyethoxy)phenoxy)phenyl)amino)-2,3-dihydro-4H-[1,4]oxazino[2,3-f]quinazolin-4-yl)prop-2-en-1-one]
5 | ≥ 7.30 | – | C=CC(=O)N1CCOc2c1ccc1ncnc(Oc3ccc(Oc4ccc(Cl)cc4)cc3)c21 [Example 36, 1-(10-(4-(4-chlorophenoxy)phenoxy)-2,3-dihydro-4H-[1,4]oxazino[2,3-f]quinazolin-4-yl)prop-2-en-1-one]
6 | ≥ 7.30 | – | C=CC(=O)N1CCOc2c1ccc1ncnc(Oc3ccc(Oc4cc(Cl)ccc4Cl)cc3)c21 [Example 38, 1-(10-(4-(2,5-dichlorophenoxy)phenoxy)-2,3-dihydro-4H-[1,4]oxazino[2,3-f]quinazolin-4-yl)prop-2-en-1-one]
7 | ≥ 7.30 | – | O=C(/C=C/CN1CCCCC1)N1CCOc2c1ccc1ncnc(Nc3ccc(Oc4ccccc4)cc3F)c21 [Example 97, (E)-1-(10-((2-fluoro-4-phenoxyphenyl)amino)-2,3-dihydro-4H-[1,4]oxazino[2,3-f]quinazolin-4-yl)-4-(piperidin-1-yl)but-2-en-1-one]
8 | ≥ 7.30 | – | O=C(/C=C/CN1CCCCC1)N1CCOc2c1ccc1ncnc(Nc3ccc(Oc4ccccc4)c(F)c3)c21 [Example 98, (E)-1-(10-((3-fluoro-4-phenoxyphenyl)amino)-2,3-dihydro-4H-[1,4]oxazino[2,3-f]quinazolin-4-yl)-4-(piperidin-1-yl)but-2-en-1-one]
9 | ≥ 7.30 | ≥ 7.30 | CN1CCC[C@@H]1/C=C/C(=O)N1CCOc2c1ccc1ncnc(Nc3ccc(OCc4ccccn4)c(Cl)c3)c21 [Example 114]
10 | ≥ 7.30 | ≥ 7.30 | O=C(/C=C/CN1CCC(O)CC1)N1CCOc2c1ccc1ncnc(Nc3ccc(OCc4ccccn4)c(Cl)c3)c21 [Example 115, (E)-1-(10-((3-chloro-4-(pyridin-2-ylmethoxy)phenyl)amino)-2,3-dihydro-4H-[1,4]oxazino[2,3-f]quinazolin-4-yl)-4-(4-hydroxypiperidin-1-yl)but-2-en-1-one]
11 | ≥ 7.30 | ≥ 7.30 | O=C(/C=C/CN1CCC(CO)CC1)N1CCOc2c1ccc1ncnc(Nc3ccc(OCc4ccccn4)c(Cl)c3)c21 [Example 117, (E)-1-(10-((3-chloro-4-(pyridin-2-ylmethoxy)phenyl)amino)-2,3-dihydro-4H-[1,4]oxazino[2,3-f]quinazolin-4-yl)-4-(4-(hydroxymethyl)piperidin-1-yl)but-2-en-1-one]
12 | ≥ 7.30 | ≥ 7.30 | O=C(/C=C/CN1CCC(F)CC1)N1CCOc2c1ccc1ncnc(Nc3ccc(OCc4ccccn4)c(Cl)c3)c21 [Example 118, (E)-1-(10-((3-chloro-4-(pyridin-2-ylmethoxy)phenyl)amino)-2,3-dihydro-4H-[1,4]oxazino[2,3-f]quinazolin-4-yl)-4-(4-fluoropiperidin-1-yl)but-2-en-1-one]
